Assay results taken from PMC10855066, “Anti-Inflammatory and Antioxidant Pyrrolo[3,4-d]pyridazinone Derivatives Interact with DNA and Bind to Plasma Proteins—Spectroscopic and In Silico Studies” (International Journal of Molecular Sciences, 2024).

test system: T1, α1-acid-glycoprotein (AAG); orosomucoid; experiment: intrinsic fluorescence quenching, excitation […] nm; assay type: binding; settings: double-log; 297 K, 0.01 M phosphate buffer pH 7.4, 1.0 µM AAG, ligand stock in EtOH, inner filter corrected
T1 construct: gene ORM1; docking only used 3kq0

SMILES | Binding / Kb.10^4 [dm^3.mol^-1]
CCCCn1c(C)c2c(OCc3nn(CN4CCN(c5ccccc5)CC4)c(=S)o3)nn(C)c(=O)c2c1C [compound 1, pyrrolo[3,4-d]pyridazinone derivative 1] | 3.09 × 10^4 dm^3·mol^−1
CCCCn1c(C)c2c(OCc3nn(CN4CCC(O)(c5ccc(Cl)cc5)CC4)c(=S)o3)nn(C)c(=O)c2c1C [compound 2, pyrrolo[3,4-d]pyridazinone derivative 2] | 4.57 × 10^4 dm^3·mol^−1
Cc1c2c(OCc3nn(CN4CCN(c5ccccc5)CC4)c(=S)o3)nn(C)c(=O)c2c(C)n1-c1ccccc1 [compound 3, pyrrolo[3,4-d]pyridazinone derivative 3] | 4.57 × 10^4 dm^3·mol^−1
Cc1c2c(OCc3nn(CN4CCN(c5ccc([N+](=O)[O-])cc5)CC4)c(=S)o3)nn(C)c(=O)c2c(C)n1-c1ccccc1 [compound 4, pyrrolo[3,4-d]pyridazinone derivative 4] | 5.01 × 10^4 dm^3·mol^−1
Cc1c2c(OCc3nn(CN4CCC(O)(c5ccc(Cl)cc5)CC4)c(=S)o3)nn(C)c(=O)c2c(C)n1-c1ccccc1 [compound 5, pyrrolo[3,4-d]pyridazinone derivative 5] | 1.41 × 10^4 dm^3·mol^−1
